These results are taken from paper PMC8505367 (Clinical Pharmacokinetics, 2021).

Series [1] is classed as in vivo, human. The following applies: subjects with T2D, N = 55, oral, recommended dosing conditions; geometric mean of typical PK parameter values for each subject.
The format of series [2] is in vivo, human. The following applies: oral, post-dose fasting time 120 min, model-derived.
For series [3], the system named is plasma protein. The following applies: cited from earlier work.
For series [4] the following is noted: reducing gastric pH with omeprazole; cited from earlier work.

Some results are limits rather than exact numbers.

Regarding `CC[C@H](C)[C@H](NC(=O)[C@H](Cc1ccccc1)NC(=O)[C@H](CCC(=O)O)NC(=O)[C@H](CCCCNC(=O)COCCOCCNC(=O)COCCOCCNC(=O)CC[C@H](NC(=O)CCCCCCCCCCCCCCCCC(=O)O)C(=O)O)NC(=O)[C@H](C)NC(=O)[C@H](C)NC(=O)[C@H](CCC(N)=O)NC(=O)CNC(=O)[C@H](CCC(=O)O)NC(=O)[C@H](CC(C)C)NC(=O)[C@H](Cc1ccc(O)cc1)NC(=O)[C@H](CO)NC(=O)[C@H](CO)NC(=O)[C@@H](NC(=O)[C@H](CC(=O)O)NC(=O)[C@H](CO)NC(=O)[C@@H](NC(=O)[C@H](Cc1ccccc1)NC(=O)[C@@H](NC(=O)CNC(=O)[C@H](CCC(=O)O)NC(=O)C(C)(C)NC(=O)[C@@H](N)Cc1cnc[nH]1)[C@@H](C)O)[C@@H](C)O)C(C)C)C(=O)N[C@@H](C)C(=O)N[C@@H](Cc1c[nH]c2ccccc12)C(=O)N[C@@H](CC(C)C)C(=O)N[C@H](C(=O)N[C@@H](CCCNC(=N)N)C(=O)NCC(=O)N[C@@H](CCCNC(=N)N)C(=O)NCC(=O)O)C(C)C` [semaglutide], the “ka (absorption rate)” value in series [1] worked out at 2.09 h⁻¹. The “Bioavailability, plateau with longer post-dose fasting time” value in series [2] is given as “around 1.4%”. In addition, the Plasma protein binding in series [3] is greater than 99%. The “Change in semaglutide exposure” value in series [4] is on record as “small but not clinically relevant increase”.
